Source: PMC6627374, “Effects of the Pentapeptide P33 on Memory and Synaptic Plasticity in APP/PS1 Transgenic Mice: A Novel Mechanism Presenting the Protein Fe65 as a Target” (International Journal of Molecular Sciences, 2019)
Entries after “also recorded” stand apart in the source; their conditions may differ. Where a SMILES comes first, the peptide text is derived from it.

Columns and labels:
[1] = test system: Pin1-WW domain (WW domain of Pin1); test: ITC binding to Pin1-WW; settings: 310 K, PBS pH 7.4, Pin1-WW 81.4 μM in cell, P33 in syringe
Method: Synthesis of acetyl-Fe65-WW, acetyl-Pin1-WW, and the control PPPPP (structures involved in Figure 2) was carried out on a Rink Amide AM (0.3 mmol∙g^−1) resin using Fmoc chemistry and activation with HATU in the presence of DIPEA. Cleavage was achieved by a treatment with TFA/H2O/triisopropylsilane/1,4-dithio-DL-threitol/phenol (90:5:3:1:1) at room temperature (RT). TFA was removed in vacuo, the peptides were then precipitated using cold, dry diethyl-ether, dissolved in ACN/H2O and lyophilized.
Isothermal titrations were performed using a Microcal VP-ITC (Malvern Instruments, Malvern, UK) microcalorimeter. Binding experiments were carried out in degassed phosphate-buffered saline (PBS) at pH 7.4. The concentrations of Fe65-WW and Pin1-WW were normalized for the peptide contents. In one titration experiment, 10-μL portions of the ligand-containing solution (P33 or PPPPP) were injected from a computer-controlled 300-μL microsyringe at intervals of 300 s into the solution of the WW domain (Fe65-WW or Pin1-WW), dissolved in the same buffer as for the ligand. The rev of the microsyringe was set to 307 rpm. […] Control experiments were performed by injecting P33 or PPPPP into the cell containing plain buffer without the WW domain, with results achieved via subtracting the dilution heats from those measured in the presence of the WW domain.

pT^668-APP = test: Western blot, pT^668-APP level in brain; type: in vivo, mouse; settings: 5 mg∙kg^−1 i.p., five days per week, six months; HC and CTX
Method: (§1) For this study, three-month-old male and female WT and APP/PS1 mice (n = 37) were used. Four groups were defined: WT-vehicle (physiological saline) (male n = 4; female n = 6), WT-P33 (male n = 6; female n = 5), APP/PS1-vehicle (male n = 3; female n = 5), and APP/PS1-P33 (male n = 6; female n = 2). Animals were subjected to intraperitoneal (i.p.) injections of P33 (5 mg∙kg^−1) for five days per week, over a course of six months. The mice were kept in groups under constant temperature (23 ± 0.5 °C), lighting (12-h/12-h light/dark cycle, lights on at 7:00 a.m.), and humidity (~50%). Standard mouse chow and tap water were supplied ad libitum. All behavioral experiments were performed in the light period. Handling was done daily at the same time.
Nine-month-old mice (three animals per group) were euthanized via cervical dislocation. […] To quantify the level of Aβ in the mice, we used a sandwich ELISA Kit (Innotest Amyloid-[…]) from Innogenetics (Gent, Belgium), following the instructions of the manufacturer. The absorbance values were measured at 450 nm on a 96-well plate reader (NOVOstar OPTIMA, BMG Labtech, Offenburg, Germany). […]
(§2) The results of spine density and immunohistochemistry experiments were calculated with one-way ANOVA followed by Fisher’s LSD post hoc tests. […] Data were analyzed with SPSS (IBM SPSS Statistics 24), and were expressed as the mean ± standard error of the mean (SEM). […]

synaptophysin (SYN) = test: Western blot, synaptophysin (SYN) level; type: in vivo, mouse; settings: four groups WT/APP/PS1, vehicle/P33; 5 mg∙kg^−1 i.p., six months
Method: as §1, with “Handling was done daily at the same time.” left out
(§3) Protein samples, identically prepared as for ELISA, (20 μg/lane) were separated on a 15% SDS-polyacrylamide gel (80 V, 20 min at RT; than 130 V, 60 min at RT) or on a 4–12% NuPAGE® Bis-Tris Gel (Thermo Fischer Scientific, Waltham, MA, USA, 200V, 30 min at RT) and transferred to a nitrocellulose membrane (Whatman, Maidstone, UK, 450 mA, 90 min at 4 °C). […] Membranes were scanned with a Bio-Rad Molecular Imager® ChemiDoc™ XRS+Imaging System (Bio-Rad Laboratories, Hercules, CA, USA) and evaluated with the Image Lab 4.0 software.
(§4) The results of spine density and immunohistochemistry experiments were calculated with one-way ANOVA followed by Fisher’s LSD post hoc tests. […]

human Aβ1–42 = test: ELISA, soluble Aβ1–42 in HC and CTX; type: in vivo, human Aβ1–42 in APP/PS1 transgenic mice; settings: APP/PS1 mice; 5 mg∙kg^−1 i.p., six months
Method: as §1
Nine-month-old mice (three animals per group) were euthanized via cervical dislocation. […] To quantify the level of Aβ in the mice, we used a sandwich ELISA Kit (Innotest Amyloid-[…]) from Innogenetics (Gent, Belgium), following the instructions of the manufacturer. The absorbance values were measured at 450 nm on a 96-well plate reader (NOVOstar OPTIMA, BMG Labtech, Offenburg, Germany).
as §2

PSD95 = test: Western blot, PSD95 level; type: in vivo, mouse; settings: APP/PS1 mice; 5 mg∙kg^−1 i.p., five days per week, six months
Method: as §1, with “Handling was done daily at the same time.” left out
as §3, §4

C[C@@H](N)C(=O)N1CCC[C@@H]1C(=O)N[C@H](C)C(=O)N1CCC[C@@H]1C(=O)N[C@H](CCC(=O)O)C(N)=O [P33] (HELM PEPTIDE1{[dA].[dP].[dA].[dP].[dE].[am]}$$$$V2.0)
binding to Pin1-WW (in words) [1]: no considerable binding; also recorded: no detectable binding to the Pin1-WW could be observed
pT^668-APP level, effect of P33 (in words) (pT^668-APP): had no significant effect on the pT^668-APP level
SYN level, effect (in words) (synaptophysin (SYN)): significant differences were not found between the groups
soluble Aβ1–42, effect of P33 (in words) (human Aβ1–42): decreased level of Aβ1–42 in the APP/PS1 mice
PSD95 level, effect of P33 (in words) (PSD95): could be restored by applying P33 on APP/PS1 mice
